Test results taken from patent US20050107474A1, “Pharmaceutical compositions for the treatment of infections of the respiratory system by pathogenic agents” (priority 2002, published 2005).
“And” between values parts separate entries of the source, which are not always exact repeats. Equal entries are not always repeated.

How the values were obtained:
[1] = tested on: S. aureus; experiment: Bacterial growth in broth culture with NAC; format: cell-based, Staphylococcus aureus; settings: NAC up to maximum concentration 8 mg/ml
[2] = tested on: S. aureus; experiment: Viability (CFU/ml) of biofilm cells after sonication and seeding; format: cell-based, Staphylococcus aureus; settings: maximum concentration, range over strains
Method: (§1) The effects of NAC and TAPh on the biofilm produced by S. aureus were evaluated on four strains of the microorganism designated 1393, 1876, 1880 and 1890.
At the same time, the biofilms thus treated were submitted to sonication in order to disperse the cells that were still adhering, and these were seeded on rich medium after suitable dilution for calculating the vital elements surviving the various treatments.

[3] = tested on: S. epidermidis; settings: J. Ant. Chem., 39, 643, (1997); cited from earlier work
[4] = tested on: P. aeruginosa; settings: Antimicrob. Agents Chemother., 35, 1258, (1991); cited from earlier work
[5] = tested on: S. aureus biofilm; experiment: Disruption of biofilm at initial maturation (5 hours); format: cell-based, Staphylococcus aureus; settings: for disruption of biofilm formed after 5 hours (initial maturation): maximum concentration (8 mg/ml)
Method: as §1
(§2) The biofilm adhering to the walls of the microplates was washed with PBS, suspended in 10% sarcosyl and measured spectrophotometrically at 492 nm.
(§3) The same technique was employed for calculating the residual quantity of biofilm after treatment with NAC alone and combined with TAPh on S. aureus. For this purpose, biofilms with two different degrees of maturity: initial (5 hours) and fully consolidated (48 hours) were exposed to suitable concentrations of NAC (from 8 mg/ml to 0.007 mg/ml) with added TAPh at the concentrations that can be reached in vivo in the pulmonary tree.

[6] = tested on: S. aureus biofilm; experiment: Biofilm formation in polystyrene microplates, crystal violet, spectrophotometric at 492 nm; format: cell-based, Staphylococcus aureus; settings: for reduction of the biofilm (formation) / decrease of biofilm production: NAC 8 mg/ml, 24 hours
Method: as §1
Formation of the biofilms was quantified spectrophotometrically in polystyrene microplates with U-well geometry (Corning Incorporated, New York).
In more detail, the effect of NAC on biofilm formation was evaluated as follows: overnight broth cultures in tryptic soy broth (TSB) with glucose added (0.25%) (TSBG) were diluted 1:100 in TSBG. Appropriate dilutions of NAC at concentrations varying respectively from 8 mg/ml to 0.007 mg/ml were added to the suspensions (100 μl each). After incubation at 37° C. for 24 hours, the microplates were washed three times with 10 mM phosphate buffer pH 7.4 (PBS), treated with Bouin fixative and then stained with crystal violet (0.01%).
as §2

[7] = tested on: S. aureus biofilm; experiment: Disruption of fully consolidated biofilm (48 hours); format: cell-based, Staphylococcus aureus
Method: as §1, §2, §3

## CC(=O)N[C@@H](CS)C(=O)O [NAC, N-acetyl-cysteine]
[1]
  visible changes in bacterial growth: did not cause visible changes in bacterial growth
[2]; cells of mature (consolidated) biofilms
  reduction in colony forming units per ml (CFU/ml): 33.7% to 70.6
[2]; cells of the youngest biofilms (initial maturation)
  reduction in colony forming units per ml (CFU/ml): 33.7% to 91
[3]
  inhibition of biofilm formation: inhibit their formation
[4]
  disruption of biofilms: ability to disrupt biofilms
[5]; NAC alone, first range printed
  reduction values with NAC on its own, initial biofilms (range over strains, restated): 32.5-65.5%
[5]; S. aureus 1876
  disruption of biofilm formed after 5 hours (initial maturation): 32.5%
[5]; strain 1393
  disruption of biofilm formed after 5 hours (initial maturation): 61.1%
[5]; strain 1880
  disruption of biofilm formed after 5 hours (initial maturation): 57.3%
[5]; strain 1890
  disruption of biofilm formed after 5 hours (initial maturation): 58.6%
[6]; S. aureus 1393
  reduction of the biofilm (formation): 68.2%
[6]; S. aureus 1876
  decrease of biofilm production: 30.3%
[6]; S. aureus 1880
  decrease of biofilm production: 41.1%
[6]; S. aureus 1890
  reduction of the biofilm (formation): 56.3%
[6]; all the strains
  glycocalyx production: inhibited glycocalyx production in all the strains
[7]; NAC alone, second range printed
  reduction values with NAC on its own, fully consolidated biofilms (range over strains, restated): 58.1-62%
[7]; maximum concentration, four strains assayed, one value each, strain per value not given
  reduction of mucopolysaccharide material of fully consolidated biofilms: 62% and 60.5% and 58.1% and 65.5%
